Results as given in ChEMBL document CHEMBL3872259, “Synthesis, characterization, and in vitro SAR evaluation of N,N'-bis(arylmethyl)-C2-alkyl substituted imidazolium salts” (Bioorg Med Chem Lett, 2017).

Tests used:
[1] = Antiproliferative activity against human HOP62 cells assessed as cell growth at 10 uM measured after 48 hrs by sulforhodamine B assay relative to control; type: functional; conditions: HOP-62, 48 h, read-out: Activity
[2] = Antiproliferative activity against human EKVX cells assessed as cell growth at 10 uM measured after 48 hrs by sulforhodamine B assay relative to control; type: functional; conditions: read-out: Activity
[3] = Antiproliferative activity against human A549/ATCC cells assessed as cell growth at 10 uM measured after 48 hrs by sulforhodamine B assay relative to control; type: functional; conditions: A549, 48 h, read-out: Activity
[4] = Antiproliferative activity against human NCI-H460 cells assessed as reduction in cell viability measured after 72 hrs by MTT assay; type: functional, cell-based; conditions: NCI-H460, 72 h; for CC50: read-out: LC50 (the source's name)
[5] = Antiproliferative activity against human NCI-H1975 cells assessed as reduction in cell viability measured after 72 hrs by MTT assay; type: functional, cell-based; conditions: NCI-H1975, 72 h
[6] = Antiproliferative activity against human HCC827 cells assessed as reduction in cell viability measured after 72 hrs by MTT assay; type: functional, cell-based; conditions: HCC827, 72 h
[7] = Antiproliferative activity against human A549 cells assessed as reduction in cell viability measured after 72 hrs by MTT assay; type: functional, cell-based; conditions: A549, 72 h
[8] = Aqueous solubility of the compound; type: physicochemical; conditions: buffer
[9] = Antiproliferative activity against human HOP92 cells assessed as cell growth at 10 uM measured after 48 hrs by sulforhodamine B assay relative to control; type: functional; conditions: HOP-92, 48 h, read-out: Activity
[10] = Antiproliferative activity against human NCI-H226 cells assessed as cell growth at 10 uM measured after 48 hrs by sulforhodamine B assay relative to control; type: functional; conditions: NCI-H226, 48 h, read-out: Activity
[11] = Antiproliferative activity against human NCI-H23 cells assessed as cell growth at 10 uM measured after 48 hrs by sulforhodamine B assay relative to control; type: functional; conditions: NCI-H23, 48 h, read-out: Activity
[12] = Antiproliferative activity against human NCI-H322M cells assessed as cell growth at 10 uM measured after 48 hrs by sulforhodamine B assay relative to control; type: functional; conditions: read-out: Activity
[13] = Antiproliferative activity against human NCI-H460 cells assessed as cell growth at 10 uM measured after 48 hrs by sulforhodamine B assay relative to control; type: functional; conditions: NCI-H460, 48 h, read-out: Activity
[14] = Antiproliferative activity against human NCI-H522 cells assessed as cell growth at 10 uM measured after 48 hrs by sulforhodamine B assay relative to control; type: functional; conditions: NCI-H522, 48 h, read-out: Activity
[15] = Growth inhibition of human EKVX cells measured after 48 hrs by sulforhodamine B assay; type: functional; conditions: for CC50: read-out: LC50 (the source's name)
[16] = Growth inhibition of human HOP62 cells measured after 48 hrs by sulforhodamine B assay; type: functional; conditions: HOP-62, 48 h; for CC50: read-out: LC50 (the source's name)
[17] = Growth inhibition of human HOP92 cells measured after 48 hrs by sulforhodamine B assay; type: functional; conditions: HOP-92, 48 h; for CC50: read-out: LC50 (the source's name)
[18] = Growth inhibition of human NCI-H226 cells measured after 48 hrs by sulforhodamine B assay; type: functional; conditions: NCI-H226, 48 h; for CC50: read-out: LC50 (the source's name)
[19] = Growth inhibition of human NCI-H23 cells measured after 48 hrs by sulforhodamine B assay; type: functional; conditions: NCI-H23, 48 h; for CC50: read-out: LC50 (the source's name)
[20] = Growth inhibition of human NCI-H322M cells measured after 48 hrs by sulforhodamine B assay; type: functional; conditions: for CC50: read-out: LC50 (the source's name)
[21] = Growth inhibition of human NCI-H522 cells measured after 48 hrs by sulforhodamine B assay; type: functional; conditions: NCI-H522, 48 h

CCCc1n(Cc2ccc3ccccc3n2)cc[n+]1Cc1ccc2ccccc2c1.[Cl-]
growth at 10 µM [1]: 8.38%
growth at 10 µM [2]: 41.6%
growth at 10 µM [3]: 39.1%
GI50 [4]: 658 nM
IC50 [4]: 3000 nM
TGI [4]: 10.6 µM
CC50 [4]: 46.5 µM
IC50 [5]: 2000 nM
IC50 [6]: 6 µM
GI50 [7]: 1880 nM
IC50 [7]: 3 µM
LC50 [7]: 37.3 µM
TGI [7]: 11.8 µM
solubility [8]: > 10 mM
growth at 10 µM [9]: -18.6%
growth at 10 µM [10]: 12.3%
growth at 10 µM [11]: -11.6%
growth at 10 µM [12]: 25.7%
growth at 10 µM [13]: 7.73%
growth at 10 µM [14]: -0.78%
GI50 [15]: 2160 nM
TGI [15]: 14.9 µM
CC50 [15]: 52.7 µM
GI50 [16]: 1630 nM
TGI [16]: 5.38 µM
CC50 [16]: 26.1 µM
GI50 [17]: 188 nM
TGI [17]: 1120 nM
CC50 [17]: 9.13 µM
GI50 [18]: 1200 nM
TGI [18]: 7.6 µM
CC50 [18]: 39.7 µM
GI50 [19]: 479 nM
TGI [19]: 10.6 µM
CC50 [19]: 52 µM
GI50 [20]: 3.46 µM
TGI [20]: 15 µM
CC50 [20]: 39.6 µM
GI50 [21]: 249 nM
LC50 (50% lethal concentration) [21]: 4.59 µM
TGI [21]: 1130 nM

CCc1n(Cc2ccc3ccccc3n2)cc[n+]1Cc1ccc2ccccc2c1.[Br-]
growth at 10 µM [1]: 1.85%
growth at 10 µM [2]: 15.9%
growth at 10 µM [3]: 37.3%
GI50 [4]: 456 nM
IC50 [4]: 2000 nM
TGI [4]: 10.8 µM
CC50 [4]: 49.5 µM
IC50 [5]: < 1000 nM
IC50 [6]: 5 µM
GI50 [7]: 997 nM
IC50 [7]: 3 µM
LC50 [7]: 46.1 µM
TGI [7]: 14.1 µM
solubility [8]: 5 mM
growth at 10 µM [9]: -20.1%
growth at 10 µM [10]: 19.6%
growth at 10 µM [11]: -4.2%
growth at 10 µM [12]: 34.8%
growth at 10 µM [13]: 11.1%
growth at 10 µM [14]: -27.4%
GI50 [15]: 442 nM
TGI [15]: 7.34 µM
CC50 [15]: 38.7 µM
GI50 [16]: 1400 nM
TGI [16]: 7.02 µM
CC50 [16]: 32.1 µM
GI50 [17]: 184 nM
TGI [17]: 671 nM
CC50 [17]: 7.04 µM
GI50 [18]: 1060 nM
TGI [18]: 4.87 µM
CC50 [18]: 39.4 µM
GI50 [19]: 311 nM
TGI [19]: 3.23 µM
CC50 [19]: 37 µM
GI50 [20]: 2.86 µM
TGI [20]: 13.8 µM
CC50 [20]: 38.1 µM
GI50 [21]: 275 nM
LC50 (50% lethal concentration) [21]: 13.3 µM
TGI [21]: 986 nM

[Cl-].c1ccc(-c2n(Cc3ccc4ccccc4n3)cc[n+]2Cc2ccc3ccccc3c2)cc1
IC50 [4]: 3000 nM
IC50 [5]: 2000 nM
IC50 [6]: 6 µM
IC50 [7]: 4 µM
solubility [8]: > 10 mM

[Br-].c1ccc(-c2n(Cc3ccc4ccccc4c3)cc[n+]2Cc2ccc3ccccc3c2)cc1
growth at 10 µM [1]: -44.8%
growth at 10 µM [2]: 3.5%
growth at 10 µM [3]: 12.5%
GI50 [4]: 1370 nM
IC50 [4]: 3000 nM
TGI [4]: 2.87 µM
IC50 [5]: 2000 nM
IC50 [6]: 2 µM
GI50 [7]: 1780 nM
IC50 [7]: 4 µM
TGI [7]: 3.52 µM
solubility [8]: < 0.5 mM
growth at 10 µM [9]: -69.7%
growth at 10 µM [10]: -9.03%
growth at 10 µM [11]: -38.7%
growth at 10 µM [12]: 8.84%
growth at 10 µM [13]: -78.4%
GI50 [15]: 1580 nM
TGI [15]: 3.43 µM
GI50 [16]: 1460 nM
TGI [16]: 3.23 µM
GI50 [17]: 602 nM
TGI [17]: 2280 nM
GI50 [18]: 1260 nM
TGI [18]: 2.97 µM
GI50 [19]: 775 nM
TGI [19]: 2.35 µM
CC50 [19]: 6.14 µM
GI50 [20]: 1.42 µM
TGI [20]: 2.82 µM
CC50 [20]: 5.61 µM
GI50 [21]: 1070 nM
TGI [21]: 2580 nM

CCCc1n(Cc2ccc3ccccc3n2)cc[n+]1Cc1ccc2ccccc2n1.[Cl-]
growth at 10 µM [1]: 51.7%
growth at 10 µM [2]: 58.1%
growth at 10 µM [3]: 62.8%
GI50 [4]: 2560 nM
IC50 [4]: 5000 nM
TGI [4]: 11.7 µM
CC50 [4]: 39.8 µM
IC50 [5]: 1000 nM
IC50 [6]: 7 µM
GI50 [7]: 6780 nM
IC50 [7]: 10 µM
LC50 [7]: > 100 µM
TGI [7]: > 100 µM
solubility [8]: > 80 mM
growth at 10 µM [9]: 16%
growth at 10 µM [10]: 38%
growth at 10 µM [11]: 13%
growth at 10 µM [12]: 72.1%
growth at 10 µM [13]: 34.2%
growth at 10 µM [14]: 22.8%
GI50 [15]: 12500 nM
TGI [15]: > 100 µM
CC50 [15]: > 100 µM
GI50 [16]: 4280 nM
TGI [16]: 19.4 µM
CC50 [16]: 62.6 µM
GI50 [17]: 399 nM
TGI [17]: 3230 nM
CC50 [17]: 23.2 µM
GI50 [18]: 3400 nM
TGI [18]: 34.8 µM
CC50 [18]: > 100 µM
GI50 [19]: 865 nM
TGI [19]: 15 µM
CC50 [19]: > 100 µM
GI50 [20]: 4.68 µM
TGI [20]: 41.9 µM
CC50 [20]: > 100 µM
GI50 [21]: 601 nM
LC50 (50% lethal concentration) [21]: 27.1 µM
TGI [21]: 4300 nM
